Values after ≈ are worked out from the molar mass of the structure shown. Where two headings read alike, the source gives them in different places.
Assays:
P. aeruginosa = test: MIC and MBC determinations in vitro, P. aeruginosa; format: cell-based; conditions: Pseudomonas aeruginosa, P. aeruginosa clinical isolate; for MIC: 24 h culture, read-out: MIC; for MBC: solid medium 24 h, read-out: MBC
Method: (§1) The three strains of MRSA, P. aeruginosa, and E. coli used in this experiment were from clinical isolates, which were provided by the People’s Liberation Army 304 Hospital.
(§2) To evaluate the antibacterial activities of newly synthesized N (7) position modified fluoroquinolones, the minimum inhibitory (MIC) and bactericidal (MBC) concentrations of these compounds toward bacteria were measured.

MRSA = test: MIC and MBC determinations in vitro, MRSA; format: cell-based; conditions: MRSA clinical isolate; for MIC: 24 h culture, read-out: MIC; for MBC: solid medium 24 h
Method: as §1, §2

E. coli = test: MIC and MBC determinations in vitro, E. coli; format: cell-based; conditions: Escherichia coli, E. coli clinical isolate; for MIC: 24 h culture; for MBC: solid medium 24 h
Method: as §1, §2

[1] = Staphylococcus aureus, MRSA, 24 h
[2] = Staphylococcus aureus, MRSA, 24 h, read-out: MBC

Row | SMILES | MIC (P. aeruginosa) [µg/mL] | MIC (MRSA; [1]) [µg/mL] | MIC (E. coli) [µg/mL] | melting point [°C] | MBC (P. aeruginosa) [µg/mL] | MBC (MRSA; [2]) [µg/mL] | MBC (E. coli) [µg/mL] | MBC (MRSA) [µg/mL]
1 | CCCCCC(=O)N(C)C1CCCN(c2c(F)cc3c(=O)c(C(=O)O)cn(C4CC4)c3c2OC)C1 (stereo not shown) [Compound 6-e, 1-Cyclopropyl-6-fluoro-8-methoxy-7-(3-(N-methylhexanamido)piperidin-1-yl)-4-oxo-1,4-dihydroquinoline-3-carboxylic acid] | 0.313 (≈ 0.642 µM) | 0.156 (≈ 0.32 µM) | 20 (≈ 41 µM) | – | 0.625 (≈ 1.28 µM) | 0.625 (≈ 1.28 µM) | 20 (≈ 41 µM) | –
2 | CCCCCCC(=O)N(C)C1CCCN(c2c(F)cc3c(=O)c(C(=O)O)cn(C4CC4)c3c2OC)C1 (stereo not shown) [Compound 7-e, 1-Cyclopropyl-6-fluoro-8-methoxy-7-(3-(N-methylheptanamido)piperidin-1-yl)-4-oxo-1,4-dihydroquinoline-3-carboxylic acid] | 0.625 (≈ 1.25 µM) | 0.313 (≈ 0.624 µM) | > 40 | – | 1.25 (≈ 2.49 µM) | 0.625 (≈ 1.25 µM) | > 40 | –
3 | CCCCCCCC(=O)N(C)C1CCCN(c2c(F)cc3c(=O)c(C(=O)O)cn(C4CC4)c3c2OC)C1 (stereo not shown) [Compound 8-e, 1-Cyclopropyl-6-fluoro-8-methoxy-7-(3-(N-methyloctanamido)piperidin-1-yl)-4-oxo-1,4-dihydroquinoline-3-carboxylic acid] | 1.25 (≈ 2.42 µM) | 1.25 (≈ 2.42 µM) | > 40 | 68.2 to 70 | 5 (≈ 9.7 µM) | 5 (≈ 9.7 µM) | > 40 | –
4 | CCCCCCCCCC(=O)N(C)C1CCCN(c2c(F)cc3c(=O)c(C(=O)O)cn(C4CC4)c3c2OC)C1 (stereo not shown) [Compound 10-e, 1-Cyclopropyl-6-fluoro-8-methoxy-7-(3-(N-methyldecanamido)piperidin-1-yl)-4-oxo-1,4-dihydroquinoline-3-carboxylic acid] | 5 (≈ 9.2 µM) | 5 (≈ 9.2 µM) | > 40 | 65.2 to 68.1 | 20 (≈ 36.8 µM) | 20 (≈ 36.8 µM) | > 40 | –
5 | COc1c(N2CCCC(N(C)C(=O)C(C)N)C2)c(F)cc2c(=O)c(C(=O)O)cn(C3CC3)c12 (stereo not shown) [Compound 19-e, 7-(3-(2-Amino-N-methylpropanamido)piperidin-1-yl)-1-cyclopropyl-6-fluoro-8-methoxy-4-oxo-1,4-dihydroquinoline-3-carboxylic acid] | 0.39 (≈ 0.847 µM) | 1.56 (≈ 3.39 µM) | 12.5 (≈ 27.1 µM) | – | 1.56 (≈ 3.39 µM) | 3.12 (≈ 6.79 µM) | 25 (≈ 54.3 µM) | –
6 | COc1c(N2CCCC(N(C)C(=O)CN)C2)c(F)cc2c(=O)c(C(=O)O)cn(C3CC3)c12 (stereo not shown) [Compound 20-e, 7-(3-(2-Amino-N-methylacetamido)piperidin-1-yl)-1-cyclopropyl-6-fluoro-8-methoxy-4-oxo-1,4-dihydroquinoline-3-carboxylic acid] | 0.78 (≈ 1.75 µM) | 25 (≈ 56 µM) | 25 (≈ 56 µM) | – | 6.25 (≈ 14 µM) | 50 (≈ 112 µM) | 50 (≈ 112 µM) | –
7 | COc1c(N2CCCC(N(C)C)C2)c(F)cc2c(=O)c(C(=O)O)cn(C3CC3)c12 (stereo not shown) [Compound 21-e, 1-Cyclopropyl-7-(3-(dimethylamino)piperidin-1-yl)-6-fluoro-8-methoxy-4-oxo-1,4-dihydroquinoline-3-carboxylic acid] | 0.313 (≈ 0.776 µM) | 0.078 (≈ 0.193 µM) | 0.625 (≈ 1.55 µM) | – | 0.313 (≈ 0.776 µM) | 0.31 (≈ 0.768 µM) | 0.625 (≈ 1.55 µM) | 0.313 (≈ 0.776 µM)
8 | COc1c(N2CC3CCCN(C(=O)Cn4cncn4)C3C2)c(F)cc2c(=O)c(C(=O)O)cn(C3CC3)c12 (stereo not shown) [Compound f-1, 7-(1-(2-(1H-1,2,4-Triazol-1-yl)acetyl)octahydro-6H-pyrrolo[3,4-b]pyridin-6-yl)-1-cyclopropyl-6-fluoro-8-methoxy-4-oxo-1,4-dihydroquinoline-3-carboxylic acid] | 1.25 (≈ 2.45 µM) | 0.313 (≈ 0.613 µM) | 0.625 (≈ 1.22 µM) | – | 2.5 (≈ 4.9 µM) | 2.5 (≈ 4.9 µM) | 2.5 (≈ 4.9 µM) | –

Continued, in another order:

Row | MIC (P. aeruginosa) [µg/mL] | MIC (MRSA; [1]) [µg/mL] | MIC (E. coli) [µg/mL] | melting point [°C] | SMILES | MBC (P. aeruginosa) [µg/mL] | MBC (MRSA; [2]) [µg/mL] | MBC (E. coli) [µg/mL] | MBC (MRSA) [µg/mL]
9 | 0.039 (≈ 0.0972 µM) | 0.039 (≈ 0.0972 µM) | 0.039 (≈ 0.0972 µM) | – | COc1c(N2C[C@@H]3CCCN[C@@H]3C2)c(F)cc2c(=O)c(C(=O)O)cn(C3CC3)c12 [Compound 1f, moxifloxacin, reference compound] | 0.039 (≈ 0.0972 µM) | 0.039 (≈ 0.0972 µM) | 0.039 (≈ 0.0972 µM) | –
10 | 0.313 (≈ 0.706 µM) | 0.313 (≈ 0.706 µM) | 0.313 (≈ 0.706 µM) | – | COc1c(N2CC3CCCN(C(C)=O)C3C2)c(F)cc2c(=O)c(C(=O)O)cn(C3CC3)c12 (stereo not shown) [Compound 2-f, 7-(1-Acetyloctahydro-6H-pyrrolo[3,4-b]pyridin-6-yl)-1-cyclopropyl-6-fluoro-8-methoxy-4-oxo-1,4-dihydroquinoline-3-carboxylic acid] | 0.625 (≈ 1.41 µM) | 0.625 (≈ 1.41 µM) | 0.625 (≈ 1.41 µM) | –
11 | 0.078 (≈ 0.175 µM) | 0.039 (≈ 0.0875 µM) | 5 (≈ 11.2 µM) | – | CCC(=O)N(C)C1CCCN(c2c(F)cc3c(=O)c(C(=O)O)cn(C4CC4)c3c2OC)C1 (stereo not shown) [Compound 3-e, 1-Cyclopropyl-6-fluoro-8-methoxy-7-(3-(N-methylpropionamido)piperidin-1-yl)-4-oxo-1,4-dihydroquinoline-3-carboxylic acid] | 0.078 (≈ 0.175 µM) | 0.078 (≈ 0.175 µM) | 10 (≈ 22.4 µM) | –
12 | 0.078 (≈ 0.17 µM) | 0.039 (≈ 0.0849 µM) | 5 (≈ 10.9 µM) | – | CCCC(=O)N(C)C1CCCN(c2c(F)cc3c(=O)c(C(=O)O)cn(C4CC4)c3c2OC)C1 (stereo not shown) [Compound 4-e, 1-Cyclopropyl-6-fluoro-8-methoxy-7-(3-(N-methylbutyramido)piperidin-1-yl)-4-oxo-1,4-dihydroquinoline-3-carboxylic acid] | 0.078 (≈ 0.17 µM) | 0.078 (≈ 0.17 µM) | 20 (≈ 43.5 µM) | –
13 | 0.078 (≈ 0.165 µM) | 0.078 (≈ 0.165 µM) | 10 (≈ 21.1 µM) | – | CCCCC(=O)N(C)C1CCCN(c2c(F)cc3c(=O)c(C(=O)O)cn(C4CC4)c3c2OC)C1 (stereo not shown) [Compound 5-e, 1-Cyclopropyl-6-fluoro-8-methoxy-7-(3-(N-methylpentanamido)piperidin-1-yl)-4-oxo-1,4-dihydroquinoline-3-carboxylic acid] | 0.156 (≈ 0.329 µM) | 0.156 (≈ 0.329 µM) | 20 (≈ 42.2 µM) | –
14 | 0.156 (≈ 0.316 µM) | 0.078 (≈ 0.158 µM) | 20 (≈ 40.5 µM) | – | COc1c(N2CCCC(N(C)C(=O)c3ccccc3)C2)c(F)cc2c(=O)c(C(=O)O)cn(C3CC3)c12 (stereo not shown) [Compound 12-e, 1-Cyclopropyl-6-fluoro-8-methoxy-7-(3-(N-methylbenzamido)piperidin-1-yl)-4-oxo-1,4-dihydroquinoline-3-carboxylic acid] | 0.313 (≈ 0.634 µM) | 0.313 (≈ 0.634 µM) | 20 (≈ 40.5 µM) | –
15 | 0.078 (≈ 0.158 µM) | 0.078 (≈ 0.158 µM) | 10 (≈ 20.2 µM) | – | COc1c(N2CCCC(N(C)C(=O)c3cccnc3)C2)c(F)cc2c(=O)c(C(=O)O)cn(C3CC3)c12 (stereo not shown) [Compound 15-e, 1-Cyclopropyl-6-fluoro-8-methoxy-7-(3-(N-methylnicotinamido)piperidin-1-yl)-4-oxo-1,4-dihydroquinoline-3-carboxylic acid] | 0.156 (≈ 0.315 µM) | 0.156 (≈ 0.315 µM) | 20 (≈ 40.4 µM) | –
16 | 0.156 (≈ 0.313 µM) | 0.156 (≈ 0.313 µM) | 0.156 (≈ 0.313 µM) | – | COc1c(N2CCCC(N(C)C(=O)Cn3cncn3)C2)c(F)cc2c(=O)c(C(=O)O)cn(C3CC3)c12 (stereo not shown) [Compound e-1, 1-Cyclopropyl-6-fluoro-8-methoxy-7-(3-(N-methyl-2-(1H-1,2,4-triazol-1-yl)acetamido)piperidin-1-yl)-4-oxo-1,4-dihydroquinoline-3-carboxylic acid] | 0.313 (≈ 0.628 µM) | 0.312 (≈ 0.626 µM) | 0.313 (≈ 0.628 µM) | 0.313 (≈ 0.628 µM)
